Read-outs that look alike come from different tables or passages of the source.
Biological target: T1, CIB1 and αIIb interaction (CIB1-GST : F-αIIb peptide) (Homo sapiens, UniProt Q99828)
T1 construct: made in house; host or cells: BL-21 plus RIL cells (E. coli)
T1 sequence (Q99828 1-191): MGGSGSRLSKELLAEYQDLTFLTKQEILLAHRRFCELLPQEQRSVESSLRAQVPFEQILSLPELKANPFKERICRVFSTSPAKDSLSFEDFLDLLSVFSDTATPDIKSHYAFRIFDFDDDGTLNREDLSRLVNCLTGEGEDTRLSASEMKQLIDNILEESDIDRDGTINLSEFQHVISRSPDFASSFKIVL
Assay: FP assay, 1536-well qHTS format (primary and confirmatory screen)
Format: binding
Details: for Curve Class: negative sign = inhibitory curve; for IC50: read-out: IC50

[1] = qHTS primary screen hits, Table S2, negative = inhibition
[2] = qHTS primary screen hits, Table S2, several classes where COUNT > 1
[3] = qHTS primary screen hits, Table S2
[4] = qHTS primary screen of LOPAC/NPACT libraries, negative = inhibition
[5] = qHTS primary screen of LOPAC/NPACT libraries

Row | Structure (SMILES) | Curve Class [2] | Efficacy (%) | Efficacy (%) [4] [%] | Curve Class [5] | IC50 [5] [µM] | Efficacy (%) [1] [%] | IC50 [3] [µM] | Curve Class [3]
1 | CCC(=O)NC(c1cccs1)c1ccc2cccnc2c1O (centres unmarked) [NCGC00182903-03] |  |  |  |  |  | -26 | 50.1 | -2.4
2 | Oc1cccc(C2=C3C=CC(=N3)C(c3cccc(O)c3)=C3C=CC(=N3)C(c3cccc(O)c3)=C3CCC(=N3)C(c3cccc(O)c3)=C3C=CC2=N3)c1 [NCGC00183015-01] | -2.4 |  |  |  |  | -29 | 50.1 | 
3 | CO/N=C(\C(=O)N[C@@H]1C(=O)N2C(C(=O)O)=C(Cn3nnc(C)n3)CS[C@H]12)c1csc(N)n1 [NCGC00183016-01] |  |  |  |  |  | -171 | 89.1 | -3
4 | Cl.Oc1ccc([C@H]2CNCc3c2ccc(O)c3O)cc1O [NCGC00183049-01] |  |  |  |  |  | -93 | 89.1 | -3
5 | Cc1c(C)c2c(c(C)c1OC(=O)CCC(=O)OCCO)CC[C@@](C)(CCC[C@H](C)CCC[C@H](C)CCCC(C)C)O2 [NCGC00183103-01] | -3 |  |  |  |  | -36 | 79.4 | 
6 | O=C(O)C(F)(F)F.OCc1cn(Cc2ccc(O)c3ncccc23)cn1 [NCGC00183377-01] | -2.2 |  |  |  |  | -33 | 44.7 | 
7 | O=C(O)C(F)(F)F.O=C1c2ccccc2NC(c2ccc(-c3cccc([N+](=O)[O-])c3)o2)N1O (centres unmarked) [NCGC00183384-01] | -2.4 |  |  |  |  | -23 | 56.2 | 
8 | O=C(O)C(F)(F)F.O=C1c2ccccc2NC(c2ccc(-c3ccc(C(F)(F)F)cc3)o2)N1O (centres unmarked) [NCGC00183389-01] |  |  |  |  |  | -24 | 56.2 | -2.4
9 | C=CCNc1oc(-c2ccc(F)cc2)nc1C#N.O=C(O)C(F)(F)F [NCGC00183411-01] | -2.4 |  |  |  |  | -27 | 50.1 | 
10 | CC(=O)NC(c1ccco1)c1cc(Br)c2cccnc2c1O.O=C(O)C(F)(F)F (centres unmarked) [NCGC00183684-06] | -2.2 |  |  |  |  | -40 | 50.1 | 
11 | CCC(=O)NC(c1ccco1)c1cc(Br)c2cccnc2c1O (centres unmarked) [NCGC00183688-01] |  |  |  |  |  | -28 | 56.2 | -2.4
12 | CC(=O)NC(c1ccco1)c1cc(F)c2cccnc2c1O (centres unmarked) [NCGC00183702-01] |  |  |  |  |  | -24 | 79.4 | -2.4
13 | CN(C)CCCNc1cc(O)c2ncccc2c1.O=C(O)C(F)(F)F [NCGC00183792-01] |  |  |  |  |  | -32 | 56.2 | -2.4
14 | O=C(O)C(F)(F)F.Oc1cc(NCCN2CCOCC2)cc2cccnc12 [NCGC00183799-01] | -2.2 |  |  |  |  | -45 | 50.1 | 
15 | CN(C)CCCNC(=O)c1ccc(-c2cc(O)c3ncccc3c2)cc1 [NCGC00183808-07] |  |  |  |  |  | -38 | 30.2 | 
16 | Nc1ccn(C2CO[C@H](CO)O2)c(=O)n1 (some centres unmarked) [NCGC00183848-01] | -3 |  |  |  |  | -100 | 39.8 | 
17 | CC(C)N1CCc2c(sc(NC(=O)Cc3ccccc3)c2-c2nc3ccccc3s2)C1.O=C(O)C(F)(F)F [NCGC00184841-01] |  |  |  |  |  | -104 | 28.2 | -2.1
18 | O=C(O)C(F)(F)F.O=S(=O)(Nc1ccc(O)c2ncccc12)c1ccccc1F [NCGC00184887-02] | -3 |  |  |  |  | -48 | 79.4 | 
19 | C#CCCC(=O)Nc1sc2c(c1-c1nc3ccccc3s1)CCN(C(C)C)C2.O=C(O)C(F)(F)F [NCGC00185086-01] |  |  |  |  |  | -24 | 3.5 | -1.4
20 | O=C(O)C(F)(F)F.c1nc(NCCc2c[nH]cn2)c2ccc(-c3ccc4c(c3)OCO4)cc2n1 [NCGC00185971-01] | -2.4 |  |  |  |  | -28 | 79.4 | 
21 | O=[N+]([O-])/C=C/c1ccc2c(c1)OCO2 [NCGC00186015-01] |  |  | -24 | -2.2 | 56.2 |  |  | 
22 | O=C1c2ccccc2C(=O)c2c(NCCc3ccc(O)cc3)ccc(NCCc3ccc(O)cc3)c21 [NCGC00186017-01] |  |  |  |  |  | -32 | 31.6 | -2.2
23 | Cl.O=C(CCCCCN1CCN(c2ccccc2-c2ccccc2)CC1)NC1CCCc2ccccc21 (centres unmarked) [NCGC00186032-01] |  |  | -13 | -1.2 | 25.1 |  |  | 
24 | O=C(O)C(F)(F)F.O=C1CCCC2=C1C1(CCCCC1)N=C(Nc1nc3ccccc3o1)N2 [NCGC00186052-01] | -2.4 |  |  |  |  | -23 | 56.2 | 
25 | COc1cc(O)c2c(c1)/C=C/C[C@H](O)[C@H](O)C(=O)/C=C\C[C@H](C)OC2=O [NCGC00186421-07] |  |  | -26 | -2.4 | 25.1 |  |  | 
26 | Cc1ccc(NS(=O)(=O)c2ccc3[nH]c(=O)[nH]c3c2)cc1C.O=C(O)C(F)(F)F [NCGC00187759-01] |  |  |  |  |  | -68 | 4 | -2.4
27 | CN(C)c1cccc(N2CCN(c3nn4c(=O)c5ccccc5nc4s3)CC2)c1.Cl [NCGC00187811-01] |  |  |  |  |  | -35 | 50.1 | -2.4
28 | CN(C)c1cccc(-c2cnc(N3CCC(c4ncc[nH]4)CC3)s2)c1.O=C(O)C(F)(F)F [NCGC00187899-01] |  |  |  |  |  | -34 | 79.4 | -2.4

The next lines start with results.

Row | Curve Class [2] | Efficacy (%) | Efficacy (%) [4] [%] | Curve Class [5] | IC50 [5] [µM] | Structure (SMILES) | Efficacy (%) [1] [%] | IC50 [3] [µM] | Curve Class [3]
29 | -2.4 |  |  |  |  | CO/N=C(/C(=O)N[C@@H]1C(=O)N2C(C(=O)[O-])=C(C[n+]3ccn4ncccc43)CS[C@H]12)c1nsc(N)n1 [NCGC00181750-01] | -60 | 56.2 | 
30 | -2.4 |  |  |  |  | O=C(CN1C(=O)N/C(=C\c2cn(-c3cccc(C(=O)O)c3)cn2)C1=O)Nc1ccc(Cl)cc1 [NCGC00182401-01] | -30 | 44.7 | 
31 |  | -29 |  |  |  | c1ccc(C2Nc3cccc4cccc(c34)N2)cc1 [NCGC00182927-03] |  | 50.1 | -2.4
32 |  |  | -33 | -2.4 | 35.5 | CN(NC(=O)CC(=O)NN(C)C(=S)c1ccccc1)C(=S)c1ccccc1 [NCGC00183656-09] |  |  | 
33 | -2.2 |  |  |  |  | CC(=O)Nc1sc2c(c1-c1nc3ccccc3s1)CCN(C(C)C)C2 [NCGC00183664-03] | -54 | 50.1 | 
34 | -2.4 |  |  |  |  | CC(=O)NC(C)c1cc(Cl)c2cccnc2c1O (centres unmarked) [NCGC00183686-01] | -34 | 44.7 | 
35 | -2.2 |  |  |  |  | CC(=O)NC(c1ccco1)c1cc(Cl)c2ccc(N(C)C)nc2c1O (centres unmarked) [NCGC00183714-01] | -39 | 50.1 | 
36 |  |  | -14 | -1.2 | 1.8 | Cc1ccc(O)c(N=Nc2ccccc2)n1 [NCGC00185991-01] |  |  | 
37 |  |  | -13 | -1.2 | 6.3 | CCOC(=O)C1=C(C)NC(C)=C(C(=O)OCC)C1c1c(F)c(F)c(F)c(F)c1F [NCGC00186027-01] |  |  | 
38 | -2.4 |  |  |  |  | Cl.O=c1c2ccccc2nc2sc(Nc3cccc(N4CCNCC4)c3)nn12 [NCGC00187809-01] | -32 | 44.7 | 
